How the values were obtained:
[1] = target: GDP-bound KRAS wild-type protein (Homo sapiens, UniProt P01116); experiment: Binding to KRAS by surface plasmon resonance (SPR), dissociation constant KD; conditions: Single Cycle Kinetics, 1:1 binding model
Method in brief: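 Read-out is KD from 1:1 fitting of single-cycle kinetics sensorgrams, blank-cycle and reference-surface corrected. Proteins were GDP-loaded, biotinylated Avi-fusions freshly captured each cycle at roughly 100–300 RU. Runs were at 30°C in HBS pH 7.4 with MgCl2, GDP and 4% DMSO.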

[2] = target: GDP-bound NRAS wild-type protein (Homo sapiens, UniProt P01111); experiment: Binding to NRAS by surface plasmon resonance (SPR), KD and KD ratio to KRAS; conditions: ratio of the KD value with respect to GDP-bound NRAS wild-type protein to the KD value with respect to KRAS
Chain of GDP-bound NRAS wild-type protein (P01111 whole entry): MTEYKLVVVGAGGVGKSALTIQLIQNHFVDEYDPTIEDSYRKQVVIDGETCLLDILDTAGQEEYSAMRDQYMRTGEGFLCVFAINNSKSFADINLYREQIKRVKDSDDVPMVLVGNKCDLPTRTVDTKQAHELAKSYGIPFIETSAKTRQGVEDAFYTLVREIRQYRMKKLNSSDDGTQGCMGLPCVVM
Method in brief: (§1)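 SPR, 30°C: Avi-biotin RAS·GDP captured via Biotin CAPture (~100–300 RU); running buffer HBS pH 7.4, 1 mM DTT, 10 mM MgCl2, 0.01% Tween 20, 10 µM GDP, 4% DMSO. Single-cycle kinetics, 100 µL/min, 75 s injections; 1:1 model → KD.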

HRAS wild-type protein = HRAS wild-type protein (Homo sapiens, UniProt P01112); experiment: Binding to HRAS by surface plasmon resonance (SPR), KD and KD ratio to KRAS; conditions: ratio of the KD value with respect to HRAS wild-type protein to the KD value with respect to KRAS
Chain of HRAS wild-type protein (P01112 whole entry): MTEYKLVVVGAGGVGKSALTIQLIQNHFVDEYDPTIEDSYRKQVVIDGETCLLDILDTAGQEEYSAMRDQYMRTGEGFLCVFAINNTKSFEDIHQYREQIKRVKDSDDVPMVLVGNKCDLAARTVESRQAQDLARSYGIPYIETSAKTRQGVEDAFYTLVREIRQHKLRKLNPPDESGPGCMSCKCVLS
Method in brief: as §1

[3] = system: human lung cancer strain NCI-H441; type: cell-based
Method in brief: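 Proliferation was scored by […] measured after the reagent was added to cultures kept at 37°C in 5% carbon dioxide.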

Chain of GDP-bound KRAS wild-type protein (P01116 1-188 isoform P01116-2): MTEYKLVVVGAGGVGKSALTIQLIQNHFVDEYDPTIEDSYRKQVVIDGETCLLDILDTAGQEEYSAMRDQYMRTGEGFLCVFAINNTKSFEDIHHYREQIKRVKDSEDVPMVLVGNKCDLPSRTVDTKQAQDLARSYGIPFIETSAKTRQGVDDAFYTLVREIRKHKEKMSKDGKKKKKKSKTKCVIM

SMILES	Kd [1]	NRAS /KRAS [2]	HRAS /KRAS (HRAS wild-type protein)	IC50 [3]
CC[C@H](C)[C@@H]1NC(=O)[C@H](CC(C)C)N(C)C(=O)C[C@@H](C(=O)N2CCOCC2)N(C)C(=O)[C@H](C2CCCC2)N(C)C(=O)C2(CCCC2)NC(=O)[C@@H]2CCCN2C(=O)[C@H](CCc2ccc(C(F)(F)F)c(Cl)c2)NC(=O)CN(C)C(=O)[C@H](Cc2ccc(Cl)cc2)N2CCCC[C@@H](C2=O)N(C)C(=O)CN(C)C1=O [PP0532]	0.066 nM	C (A compound having a KD ratio of 0.1 or more and less than 3 is denoted as C)	B (a compound having 3 or more and less than 10 is denoted as B)	6.9 nM
CC[C@H](C)[C@@H]1NC(=O)[C@H](CC(C)C)N(C)C(=O)C[C@@H](C(=O)N2CCOCC2)NC(=O)[C@H](C2CCCC2)N(C)C(=O)C2(CCCC2)NC(=O)[C@@H]2CCCN2C(=O)[C@H](CCc2cc(F)c(C(F)(F)F)c(F)c2)NC(=O)CN(C)C(=O)[C@H](Cc2ccc(C(F)(F)F)cc2)N2CCCC[C@@H](C2=O)N(C)C(=O)CN(C)C1=O [PP0541]	0.47 nM	B (a compound having 3 or more and less than 10 is denoted as B)	B (a compound having 3 or more and less than 10 is denoted as B)	83.3 nM
CC[C@H](C)[C@@H]1NC(=O)[C@H](CC)N(C)C(=O)C[C@@H](C(=O)N2CCOCC2)N(C)C(=O)[C@H](C2CCCC2)N(C)C(=O)C2(CCCC2)NC(=O)[C@@H]2CCCN2C(=O)[C@H](CCc2cc(F)c(C(F)(F)F)c(F)c2)NC(=O)CN(C)C(=O)[C@H](Cc2ccc(C(F)(F)F)cc2)N2CCCC[C@@H](C2=O)N(C)C(=O)CN(C)C1=O [PP0550]	0.057 nM	B (a compound having 3 or more and less than 10 is denoted as B)	B (a compound having 3 or more and less than 10 is denoted as B)	4.9 nM
CC[C@H](C)[C@@H]1NC(=O)[C@H](CC(C)C)N(C)C(=O)C[C@@H](C(=O)N2CCOCC2)N(C)C(=O)[C@H](C2CCCC2)N(C)C(=O)C2(CCCC2)NC(=O)[C@@H]2CCCN2C(=O)[C@H](CCc2cc(F)c(C(F)(F)F)c(F)c2)NC(=O)CN(C)C(=O)[C@H](Cc2ccc(C(F)(F)F)cc2)N2CCCC[C@@H](C2=O)N(C)C(=O)[C@H](CC)N(C)C1=O [PP0551]	38 nM	C (A compound having a KD ratio of 0.1 or more and less than 3 is denoted as C)	B (a compound having 3 or more and less than 10 is denoted as B)	401 nM
CC[C@H](C)[C@@H]1NC(=O)[C@H](CC(C)C)N(C)C(=O)C[C@@H](C(=O)N2C3CCC2COC3)N(C)C(=O)[C@H](C2CCCC2)N(C)C(=O)C2(CCCC2)NC(=O)[C@@H]2CCCN2C(=O)[C@H](CCc2cc(F)c(C(F)(F)F)c(F)c2)NC(=O)CN(C)C(=O)[C@H](Cc2ccc(C(F)(F)F)cc2)N2CCCC[C@@H](C2=O)N(C)C(=O)CN(C)C1=O [PP0573]	0.34 nM	B (a compound having 3 or more and less than 10 is denoted as B)	B (a compound having 3 or more and less than 10 is denoted as B)	8.7 nM
CC[C@H](C)[C@@H]1NC(=O)[C@@H](CC(C)C)N(C)C(=O)C[C@@H](C(=O)N2CCOCC2)N(C)C(=O)[C@H](C2CCCC2)N(C)C(=O)C2(CCCC2)NC(=O)[C@@H]2CCCN2C(=O)[C@H](CCc2cc(F)c(C(F)(F)F)c(F)c2)NC(=O)CN(C)C(=O)[C@H](Cc2ccc(C(F)(F)F)cc2)N2CCCC[C@@H](C2=O)N(C)C(=O)CN(C)C1=O [PP0591]	87 nM	B (a compound having 3 or more and less than 10 is denoted as B)	B (a compound having 3 or more and less than 10 is denoted as B)	3890 nM
CC[C@H](C)[C@@H]1NC(=O)[C@H](CC(C)C)N(C)C(=O)C[C@@H](C(=O)N2CCOCC2)N(C)C(=O)[C@H](C2CCCC2)N(C)C(=O)C2(CCCC2)NC(=O)[C@@H]2CCCN2C(=O)[C@H](CCc2ccc(C(F)(F)F)c(Cl)c2)NC(=O)CN(C)C(=O)[C@H](Cc2ccc(F)cc2)N2C/C=C\CC[C@@H](C2=O)N(C)C(=O)CN(C)C1=O [PP0607]	0.97 nM	C (A compound having a KD ratio of 0.1 or more and less than 3 is denoted as C)	B (a compound having 3 or more and less than 10 is denoted as B)	119 nM
CC[C@H](C)[C@@H]1NC(=O)[C@H](CC(C)C)N(C)C(=O)C[C@@H](C(=O)N2CCOCC2)N(C)C(=O)[C@H](C2CCCC2)N(C)C(=O)C2(CCCC2)NC(=O)[C@@H]2CCCN2C(=O)[C@H](CCc2ccc(C(F)(F)F)c(Cl)c2)NC(=O)CN(C)C(=O)[C@H](Cc2ccc(OC)cc2)N2C/C=C\CC[C@@H](C2=O)N(C)C(=O)CN(C)C1=O [PP0609]	3.9 nM	B (a compound having 3 or more and less than 10 is denoted as B)	B (a compound having 3 or more and less than 10 is denoted as B)	468 nM
CC[C@H](C)[C@@H]1NC(=O)[C@H](CC(C)C)N(C)C(=O)C[C@@H](C(=O)N2CCOCC2)N(C)C(=O)[C@H](C2CCCC2)N(C)C(=O)C2(CCCC2)NC(=O)[C@@H]2CCCN2C(=O)[C@H](CCc2ccc(C(F)(F)F)c(Cl)c2)NC(=O)CN(C)C(=O)[C@H](Cc2ccccc2)N2CCCCC[C@@H](C2=O)N(C)C(=O)CN(C)C1=O [PP0611]	0.73 nM	B (a compound having 3 or more and less than 10 is denoted as B)	B (a compound having 3 or more and less than 10 is denoted as B)	88.9 nM
CC[C@H](C)[C@@H]1NC(=O)[C@H](CC(C)C)N(C)C(=O)C[C@@H](C(=O)N(C)C)N(C)C(=O)[C@H](C2CCCC2)N(C)C(=O)C2(CCCC2)NC(=O)[C@@H]2CCCN2C(=O)[C@H](CCc2ccc(C(F)(F)F)c(Cl)c2)NC(=O)CN(C)C(=O)[C@H](Cc2ccc(C)cc2)N2CC=C(C)C[C@@H](C2=O)N(C)C(=O)CN(C)C1=O [PP0620]	0.69 nM	C (A compound having a KD ratio of 0.1 or more and less than 3 is denoted as C)	C (A compound having a KD ratio of 0.1 or more and less than 3 is denoted as C)	38.4 nM
CC[C@H](C)[C@@H]1NC(=O)[C@H](CC(C)C)N(C)C(=O)C[C@@H](C(=O)N(C)C)N(C)C(=O)[C@H](C2CCCC2)N(C)C(=O)C2(CCCC2)NC(=O)[C@@H]2CCCN2C(=O)[C@H](CCc2ccc(C(F)(F)F)c(Cl)c2)NC(=O)CN(C)C(=O)[C@H](Cc2ccc(C(F)(F)F)cc2)N2CC=CCOC[C@H](C2=O)N(C)C(=O)CN(C)C1=O [PP0628]	2.4 nM	C (A compound having a KD ratio of 0.1 or more and less than 3 is denoted as C)	C (A compound having a KD ratio of 0.1 or more and less than 3 is denoted as C)	46.3 nM
CC[C@H](C)[C@@H]1NC(=O)[C@H](CC(C)C)N(C)C(=O)C[C@@H](C(=O)N(C)C)N(C)C(=O)[C@H](C2CCCC2)N(C)C(=O)C2(CCCC2)NC(=O)[C@@H]2CCCN2C(=O)[C@H](CCc2ccc(C(F)(F)F)c(Cl)c2)NC(=O)CN(C)C(=O)[C@H](Cc2ccc(C)cc2)N2CC=CCOC[C@H](C2=O)N(C)C(=O)CN(C)C1=O [PP0629]	2.4 nM	B (a compound having 3 or more and less than 10 is denoted as B)	C (A compound having a KD ratio of 0.1 or more and less than 3 is denoted as C)	45.1 nM
CCO[C@@H]1C[C@H]2C(=O)NC3(CCC3)C(=O)N(C)[C@@H](C3CCCC3)C(=O)N(CC)[C@H](C(=O)N3CCOCC3)CC(=O)N(C)[C@@H](CC(C)C)C(=O)N[C@@H]([C@@H](C)CC)C(=O)N(C)CC(=O)N(C)[C@H]3CCCCCN(C3=O)[C@@H](Cc3ccc(C(F)(F)F)cc3)C(=O)N(C)CC(=O)N[C@@H](CCc3cc(F)c(C(F)(F)F)c(F)c3)C(=O)N2C1 [PP0638]	3.4 nM	B (a compound having 3 or more and less than 10 is denoted as B)	B (a compound having 3 or more and less than 10 is denoted as B)	341 nM
CCO[C@@H]1C[C@H]2C(=O)NC3(CCC3)C(=O)N(C)[C@@H](C3CCCC3)C(=O)N(CCC3CCC3)[C@H](C(=O)N3CCOCC3)CC(=O)N(C)[C@@H](CC(C)C)C(=O)N[C@@H]([C@@H](C)CC)C(=O)N(C)CC(=O)N(C)[C@H]3CCCCCN(C3=O)[C@@H](Cc3ccc(C(F)(F)F)cc3)C(=O)N(C)CC(=O)N[C@@H](CCc3cc(F)c(C(F)(F)F)c(F)c3)C(=O)N2C1 [PP0640]	20 nM	B (a compound having 3 or more and less than 10 is denoted as B)	B (a compound having 3 or more and less than 10 is denoted as B)	> 600 nM
CCO[C@@H]1C[C@H]2C(=O)NC3(CCC3)C(=O)N(C)[C@@H](C3CCCC3)C(=O)N(CCC3CCCC3)[C@H](C(=O)N3CCOCC3)CC(=O)N(C)[C@@H](CC(C)C)C(=O)N[C@@H]([C@@H](C)CC)C(=O)N(C)CC(=O)N(C)[C@H]3CCCCCN(C3=O)[C@@H](Cc3ccc(C(F)(F)F)cc3)C(=O)N(C)CC(=O)N[C@@H](CCc3cc(F)c(C(F)(F)F)c(F)c3)C(=O)N2C1 [PP0641]	26 nM	A (a compound having 10 or more and less than 20 is denoted as A)	A (a compound having 10 or more and less than 20 is denoted as A)	> 1300 nM
CCO[C@@H]1C[C@H]2C(=O)NC3(CCC3)C(=O)N(C)[C@@H](C3CCCC3)C(=O)N(CCc3ccccc3)[C@H](C(=O)N3CCOCC3)CC(=O)N(C)[C@@H](CC(C)C)C(=O)N[C@@H]([C@@H](C)CC)C(=O)N(C)CC(=O)N(C)[C@H]3CCCCCN(C3=O)[C@@H](Cc3ccc(C(F)(F)F)cc3)C(=O)N(C)CC(=O)N[C@@H](CCc3cc(F)c(C(F)(F)F)c(F)c3)C(=O)N2C1 [PP0642]	110 nM	B (a compound having 3 or more and less than 10 is denoted as B)	B (a compound having 3 or more and less than 10 is denoted as B)	2650 nM

Source: EP4603105A1, “PHARMACEUTICAL COMPOSITION CONTAINING CYCLIC COMPOUND HAVING SELECTIVE KRAS INHIBITORY EFFECT AGAINST HRAS AND NRAS” (CHUGAI SEIYAKU KABUSHIKI KAISHA, priority 2022, dated 2024)
